From patent US11702417B2, “Compounds for improving mRNA splicing” (The General Hospital Corporation, priority 2015, dated 2023)
Like-named read-outs stand apart in the source and are kept apart here.

Key:
[1] = system: FD (familial dysautomonia) IKBKAP minigene, exon 20 inclusion, in HEK293T cells; experiment: Primary splicing assay (FD IKBKAP minigene, Firefly/Renilla luciferase reporter in HEK293T); format: cell-based, human; details: for EC (maximum kinetin efficacy) / Emax: Homo sapiens, HEK-293T; for EC (maximum kinetin efficacy): HEK293T, read-out: ECk (compound concentration at which the maximum kinetin efficacy (200 μM) is reached)
[2] = system: IKBKAP splicing (exon 20 inclusion) in FD fibroblasts GM04663; experiment: Secondary assay: IKBKAP splicing analysis by RT-PCR in FD fibroblasts GM04663; format: cell-based; details: Homo sapiens, FD fibroblasts GM04663, 24 hours of treatment, read-out: % exon Inclusion Normalized
[3] = Firefly/Renilla ratio, 24 hours of treatment
[4] = max efficacy in Primary Assay, Firefly/Renilla ratio, kinetin and DMSO as positive and negative controls, 24 hours of treatment, read-out: Emax (%)

Q: Which results are given for `Clc1nc(NCc2ccco2)c2nc(OC3COC3)[nH]c2n1` [(269)]?
A: EC (maximum kinetin efficacy) [1, 3]: 1.39 µM; Emax [1, 4]: 119%; activation at 0.08 µM [2]: 34.8%; activation at 0.8 µM [2]: 102%

Q: Which results are given for `Clc1nc(NCc2nccs2)c2nc(OCC3CCO3)[nH]c2n1` (stereo not drawn) [(346)]?
A: EC (maximum kinetin efficacy) [1, 3]: 1.42 µM; Emax [1, 4]: 181%; activation at 0.08 µM [2]: 23.2%; activation at 0.8 µM [2]: 58.6%

Q: For `Clc1nc(NCc2ccco2)c2nn[nH]c2n1` [(285)], which EC (maximum kinetin efficacy) [1, 3] is on record?
A: 6.78 µM

Q: What about the Emax [1, 4] of the same compound?
A: 115%

Q: And the activation at 0.08 µM [2]?
A: 0.06%

Q: And the activation at 0.8 µM [2]?
A: 1.46%

Q: With `FC(F)(F)COc1nc2c(NCc3nccs3)nc(Cl)nc2[nH]1` [(302)] as the compound, how does the EC (maximum kinetin efficacy) [1, 3] read?
A: 1.42 µM

Q: What about the Emax [1, 4] of the same compound?
A: 176%

Q: And the activation at 0.08 µM [2]?
A: 23.3%

Q: What about the activation at 0.8 µM [2] of the same compound?
A: 90.8%

Q: For `FC1(F)CC(COc2nc3c(NCc4nccs4)nc(Cl)nc3[nH]2)C1` [(362)], which EC (maximum kinetin efficacy) [1, 3] is on record?
A: 0.22 µM

Q: And the Emax [1, 4]?
A: 250%

Q: And the activation at 0.08 µM [2]?
A: 63.8%

Q: What about the activation at 0.8 µM [2] of the same compound?
A: 105%

Q: With `OCCOc1nc2c(NCc3ccco3)nc(Cl)nc2[nH]1` [(275)] as the compound, how does the EC (maximum kinetin efficacy) [1, 3] read?
A: 0.75 µM

Q: And the Emax [1, 4]?
A: 230%

Q: What about the activation at 0.08 µM [2] of the same compound?
A: 37.2%

Q: And the activation at 0.8 µM [2]?
A: 101%

Q: For `Clc1nc(NCc2nccs2)c2cc[nH]c2n1` [(107)], which Emax ([1]; max efficacy, Firefly only, footnote c: Renilla interference/Firefly only, read-out: Emax (%) Firefly only) is on record?
A: 184%

Q: What about the “ECk, Firefly only” value ([1]; Renilla interference/Firefly only (footnote c)) of the same compound?
A: 4.58 µM⁻¹

Q: And the activation at 0.08 µM [2]?
A: 25.6%

Q: What about the activation at 0.8 µM [2] of the same compound?
A: 93.2%

Q: What does the source list for `FC(F)COc1nc2c(NCc3ccncn3)nc(Cl)nc2[nH]1` [(349)]?
A: EC (maximum kinetin efficacy) [1, 3]: 0.29 µM; Emax [1, 4]: 227%; activation at 0.08 µM [2]: 27.1%; activation at 0.8 µM [2]: 95.3%

Q: What does the source list for `COCCOc1nc2c(NCc3ccncn3)nc(Cl)nc2[nH]1` [(319)]?
A: EC (maximum kinetin efficacy) [1, 3]: 1.56 µM; Emax [1, 4]: 204%; activation at 0.08 µM [2]: 14.2%; activation at 0.8 µM [2]: 77.8%

Q: For `CCCOc1nc2c(NCc3nccs3)nc(Cl)nc2[nH]1` [(271)], which EC (maximum kinetin efficacy) [1, 3] is on record?
A: 0.29 µM

Q: What about the Emax [1, 4] of the same compound?
A: 206%

Q: What about the activation at 0.08 µM [2] of the same compound?
A: 62.2%

Q: And the activation at 0.8 µM [2]?
A: 107%

Q: Which results are given for `FC(F)COc1nc2c(NCc3nccs3)nc(Cl)nc2[nH]1` [(347)]?
A: EC (maximum kinetin efficacy) [1, 3]: 0.77 µM; Emax [1, 4]: 186%; activation at 0.08 µM [2]: 18.3%; activation at 0.8 µM [2]: 72%

Q: For `Clc1nc(NCc2cscn2)c2cc[nH]c2n1` [(372)], which EC (maximum kinetin efficacy) [1, 3] is on record?
A: 3.71 µM

Q: And the Emax [1, 4]?
A: 126%

Q: And the activation at 0.08 µM [2]?
A: 13.4%

Q: And the activation at 0.8 µM [2]?
A: 48.7%

Q: `Cc1cc(CNc2nc(Cl)nc3[nH]cnc23)ccn1` [(196)] was tested. Which Emax [1, 4] did it give?
A: 7%

Q: For `Cc1[nH]c2nc(Cl)nc(NCc3ccncn3)c2c1F` [(204)], which Emax [1, 4] is on record?
A: 27%

Q: With `CC(C)(O)Cn1ccc2c(NCc3ccco3)nc(Cl)nc21` [(155)] as the compound, how does the EC (maximum kinetin efficacy) [1, 3] read?
A: 22.2 µM

Q: What about the Emax ([1]; max efficacy in Primary Assay, value flagged footnote a: Firefly inhibitor, read-out: Emax (%)) of the same compound?
A: 151%

Q: What does the source list for `Clc1nc(NCc2ccncc2)c2nc[nH]c2n1` [(134)]?
A: EC (maximum kinetin efficacy) [1, 3]: 6.25 µM; Emax [1, 4]: 174%

Q: Which Emax [1, 4] does the source give for `CN(C)Cc1c[nH]c2nc(Cl)nc(NCc3ccco3)c12` [(180)] here?
A: 28%

Q: For `Clc1nc(NCc2nccs2)c2nc(C3CC3)[nH]c2n1` [(142)], which EC (maximum kinetin efficacy) [1, 3] is on record?
A: 16.1 µM

Q: What about the Emax [1, 4] of the same compound?
A: 121%

Q: With `Cc1cnccc1CNc1nc(Cl)nc2[nH]cnc12` [(268)] as the compound, how does the Emax [1, 4] read?
A: 19%

Q: How did the Emax [1, 4] turn out when `Cc1cc(CNc2nc(Cl)nc3[nH]ccc23)ccn1` [(189)] was run?
A: 33%

Q: `Cc1cccc(CNc2ncnc3[nH]cnc23)c1` [(1)] was tested. Which Emax [1, 4] did it give?
A: 19%

Q: Which Emax [1, 4] does the source give for `Nc1nc(NCc2ccco2)c2nn[nH]c2n1` [(279)] here?
A: 54%

Q: Which Emax [1, 4] does the source give for `OC[C@H]1O[C@@H](n2cnc3c(NCc4ccco4)ncnc32)[C@H](O)[C@@H]1O` [(463)] here?
A: 90%

Q: `CC(F)(F)COc1nc2c(NCc3cscn3)nc(Cl)nc2[nH]1` [(496)] was tested. Which EC (maximum kinetin efficacy) [1, 3] did it give?
A: 1.03 µM

Q: And the Emax [1, 4]?
A: 233%

Q: Which EC (maximum kinetin efficacy) [1, 3] does the source give for `Fc1ccc(Nc2ncnc3[nH]cnc23)cc1` [(34)] here?
A: 26.6 µM

Q: Which results are given for `Clc1nc(NCc2nccs2)c2nc(OCc3cccnc3)[nH]c2n1` [(506)]?
A: EC (maximum kinetin efficacy) [1, 3]: 1.14 µM; Emax [1, 4]: 144%

Q: `CCCOc1nc2c(NCc3ccncc3)nc(Cl)nc2n1CCO` [(339)] was tested. Which EC (maximum kinetin efficacy) [1, 3] did it give?
A: 1.31 µM

Q: And the Emax [1, 4]?
A: 188%

Q: `FC(F)(F)CCOc1nc2c(NCc3ccco3)nc(Cl)nc2[nH]1` [(398)] was tested. Which EC (maximum kinetin efficacy) [1, 3] did it give?
A: 0.94 µM

Q: What about the Emax [1, 4] of the same compound?
A: 176%

Q: Which Emax [1, 4] does the source give for `CC(Nc1nc(Cl)nc2[nH]ccc12)c1ccncc1` (stereo not drawn) [(359)] here?
A: 31.5%

Q: `Clc1nc(NCc2ccncn2)c2nc(OC3CCC3)[nH]c2n1` [(321)] was tested. Which EC (maximum kinetin efficacy) [1, 3] did it give?
A: 1.41 µM

Q: What about the Emax [1, 4] of the same compound?
A: 197%

Q: `Clc1nc(NCc2ccco2)c2ccn(C3CCOCC3)c2n1` [(182)] was tested. Which Emax [1, 4] did it give?
A: 20%

Q: Which Emax [1, 4] does the source give for `O=C(NCCO)c1cc2c(NCc3ccco3)nc(Cl)nc2[nH]1` [(221)] here?
A: 86%

Q: What does the source list for `Fc1cc(CNc2nc(Cl)nc3[nH]ccc23)ccn1` [(487)]?
A: EC (maximum kinetin efficacy) [1, 3]: 6.1 µM; Emax [1, 4]: 114%

Q: Which results are given for `N#CCc1nc2c(NCc3ccco3)nc(Cl)nc2[nH]1` [(224)]?
A: EC (maximum kinetin efficacy) [1, 3]: 9.49 µM; Emax [1, 4]: 139%

Q: `Clc1ccccc1CNc1[nH]cnc2ncnc1-2` [(426)] was tested. Which Emax [1, 4] did it give?
A: 59%

Q: How did the EC (maximum kinetin efficacy) [1, 3] turn out when `OCCCOc1nc2c(NCc3ccco3)nc(Cl)nc2[nH]1` [(249)] was run?
A: 0.72 µM

Q: And the Emax [1, 4]?
A: 256%

Q: How did the Emax [1, 4] turn out when `Clc1nc(NCc2ccco2)c2[nH]cnc2n1` [(458)] was run?
A: 73.1%

Q: For `Clc1cc(NCc2ccncn2)n2ncnc2n1` [(286)], which Emax [1, 4] is on record?
A: 38%

Q: What does the source list for `CCCCOc1nc2c(NCc3ccncc3)nc(Cl)nc2[nH]1` [(305)]?
A: EC (maximum kinetin efficacy) [1, 3]: 0.43 µM; Emax [1, 4]: 284%
